Source: patent US20260315434A1, “USE OF GUAIACOL SESQUITERPENE LACTONE DERIVATIVES” (NANJING UNIVERSITY OF CHINESE MEDICINE, priority 2023, published 2026)
In brackets after ≈: the same amount, converted by molar mass.

What was measured:
[1] = test system: mouse ear atopic dermatitis; experiment: MC903-induced atopic dermatitis of the ear, ointment: ear thickness, dermatitis score, lesions; assay type: in vivo; conditions: for Dermatitis Score, ear: 7 days, max score 12; for inhibition rate of ear thickness increase: final day
Experimental: (1) Preparation of Oil Phase: Weigh white petrolatum, light liquid paraffin, glyceryl monostearate, ethylparaben, and cetyl alcohol. Heat to 65° C. while stirring until dissolved. Slowly add the dissolved active pharmaceutical ingredient (API) while continuing to stir until uniformly mixed. Set aside.
(2) Aqueous Phase Preparation: Weigh purified water and Tween 80, heat to 70° C., stir to dissolve, and set aside;
(3) Emulsification: Slowly add the aqueous phase to the oil phase while maintaining 65° C., homogenize, and continue stirring for 30 min;
(4) Cooling: Stop heating, continue stirring, gradually reduce to room temperature, cool to form an ointment, and fill containers.
(§1) Dissolve these substances in a small amount of propylene glycol, then place the resulting solution into the aforementioned pre-cooled blank ointment base. Finally, add water to make the total mass up to 10 g, and grind the mixture thoroughly in a mortar.
(§2) Except for the Normal group, all other groups underwent AD modeling: 20 μL of MC903 solution (also known as calcipotriol, purchased from Shanghai Yuanye Biotechnology Co., Ltd., used for inducing atopic models) was applied to each mouse's ears once daily for 14 consecutive days to induce the atopic dermatitis model. […] Measure ear thickness changes every 2 days using an electronic caliper before modeling and after treatment initiation.
(§3) Skin Lesion Severity Score: Daily skin lesion severity was assessed in mice using the following criteria, primarily encompassing four symptoms: 1) erythema/hemorrhage; 2) dryness; 3) desquamation/erosion; 4) edema. Each symptom was scored from 0 to 3 based on lesion severity: no symptoms=0 points, mild=1 point, moderate=2 points, severe=3 points. […] Higher scores indicated more severe lesions, with a maximum score of 12. Statistical analysis was performed on the data.

[2] = test system: inflammatory markers in the ears of AD mice; experiment: MC903-induced atopic dermatitis of the ear, ointment: mRNA of inflammatory markers; assay type: in vivo, mouse
Experimental: as §1, §2

[3] = test system: dorsal atopic dermatitis; experiment: MC903-induced atopic dermatitis of the dorsum, ointment: skin thickness, dermatitis score, lesions; assay type: in vivo, mouse; conditions: for inhibition rate of dorsal skin thickness increase: final day
Experimental: as §1
Except for the Normal group, all other groups underwent AD modeling: 48 hours prior to the experiment, hair on the dorsal neck region was meticulously removed using clippers and depilatory cream. Following modeling initiation, 20 μL of MC903 solution was applied once daily to the dorsal neck region for 14 consecutive days to induce the AD model. […] Model and control group mice received daily application of blank ointment. Twenty-four hours after completing the 14-day modeling period, photographs of skin lesions were taken, and skin lesion and blood samples were collected.
as §3

[4] = test system: T cells / MDSCs; experiment: Promotion of T cell proliferation in a co-culture model of MDSCs and T cells; assay type: cell-based, mouse; conditions: for activation at 1 µM: Mus musculus, T-cell, 12 h, read-out: T-cell proliferation rate (%), 1 μM, MDSCs treated 12 hours, co-culture of MDSCs and T cells, compared to the control group
In short: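 Bone-marrow MDSCs, after compound treatment, were co-cultured 48 h at 1:1 with CFDA-SE-labelled (10 μM solution), activated splenic T cells. Proliferation of CD3+ T cells was read by flow cytometry.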

[5] = test system: MDSCs; experiment: Inhibition of MDSC chemotaxis (Transwell, tumor-conditioned medium); assay type: cell-based, mouse; design: inhibition of MDSC chemotaxis compared to Arg: dose or concentration left out as unconfirmed
Experimental: Hepa1-6 mouse hepatocellular carcinoma cells were uniformly seeded into 6-well plates. After cells reached confluence, supernatant was aspirated, and 1-1.5 mL fresh medium was added to each well. Following 24 h culture, supernatant was collected, centrifuged at 1600 rpm for 5 min, aspirated, and filtered through a 0.22 μm membrane to obtain tumor-conditioned medium for subsequent use. […] Under sterile conditions, remove the tibia, cut both ends of the bone, and aspirate the bone marrow into a 1 mL syringe. Repeat flushing into a 15 mL centrifuge tube. Centrifuge at 1600 rpm for 5 min to collect bone marrow cells. Wash twice with 1×PBS. […] Count cells, adjust density to 1×10^6 cells/mL, and uniformly seed into 24-well plates at 300 μL per well. […] Centrifuge at 1600 rpm for 5 min, remove supernatant, resuspend cells in 300 μL fresh medium, and place into Transwell chambers. […] Co-culture for 24 h.

[6] = test system: CCR2 mRNA; experiment: Inhibition of CCR2 mRNA level in MDSCs; assay type: cell-based; conditions: Mus musculus, 2 h, read-out: Suppression Rate (inhibition of CCR2 mRNA levels)
Experimental: Under sterile conditions, the tibia was removed, both ends of the bone were cut, and bone marrow was repeatedly flushed into a 15 mL centrifuge tube using a 1 mL syringe filled with culture medium. Centrifuge at 1600 rpm for 5 min to collect bone marrow cells. […] Count cells and adjust density to 1×10^6 cells/mL in complete medium. Seed cells uniformly into 6-well plates at 2 mL per well. […] After incubation, collect cells into centrifuge tubes, centrifuge at 1600 rpm for 5 min, wash once with 1×PBS, and add 500 μL RNA extraction reagent to each tube. After centrifugation to obtain the pellet, add 20 μL DEPC-treated water to each tube to dissolve the pellet. Determine RNA concentration and reverse transcribe to cDNA. Add the cDNA, primers, and […] to a 96-well plate. Centrifuge at 4000 rpm for 5 min, then place in a PCR instrument for detection.

[7] = Water solubility testing of compounds (HPLC); conditions: deionized water, water, Water-solubility, 37 °C
[8] = test system: inflammatory cytokines (IL-1β, IL-6) in lung tissue; experiment: LPS-induced acute lung injury, inflammatory cytokines by ELISA; assay type: in vivo, C57BL/6 mice; conditions: 5 mg/kg; LPS 2411.32
Experimental: After a 7-day acclimatization period, mice were used for subsequent experiments.
The abdomen was opened, and the lungs were removed. They were rinsed twice with pre-chilled PBS. […] The remaining tissue was stored at −70° C. for future use.
Data Statistics: All data are expressed as means S.E.M. Statistical differences between groups were analyzed using one-way ANOVA and t-tests in SPSS software. P values less than 0.05 were considered statistically significant.

[9] = test system: inflammatory factors (TNF, IL-6, IL-1) in renal tissue; experiment: Lupus nephritis, renal inflammatory factor mRNA; assay type: in vivo, MRL/lpr mice; conditions: 3 mg/kg, oral, 8 weeks
Experimental: Experimental animals: MRI/MpJ and MRL/lpr mice, female, 10 weeks old, purchased from GemPharmatech LLC. Production license number: SCXK(Su)2023-0009. […] They were acclimated for 7 days before use in experiments.
Oral administration was performed continuously for 8 weeks.
Allow blood to stand at room temperature for 2 hours, then centrifuge at 3000 rpm for 20 minutes. Aspirate the serum, aliquot it, and store at −70° C. for future use. After blood collection, euthanize mice by cervical dislocation. Open the abdominal cavity, remove kidneys, and dissect out perirenal fat and capsules. […] Store remaining tissues at −70° C. for future use.

[10] = test system: IgE and inflammatory markers of AD mice; experiment: MC903-induced atopic dermatitis, oral administration: serum IgE and ear mRNA of inflammatory markers; assay type: in vivo, mouse; design: scale not given here; conditions: 5 mg/kg
Experimental: as §2

[11] = test system: inflammatory cytokines (TNF, IL-6, IL-1) in lung tissue; experiment: LPS-induced sepsis, lung inflammatory factor mRNA (Q-PCR); conditions: 5 mg/kg
Excerpt: (§4) They were acclimated for 7 days before experimentation.
(§5) The normal and model groups received equal volumes of solvent (0.5% CMC-Na) via oral gavage.
(§6) Specimen Collection: One hour after the final drug administration, mice were euthanized by cervical dislocation. The abdominal cavity was opened, and the lungs, liver, and kidneys were removed. These organs were rinsed twice with pre-chilled PBS. Tissue samples were excised from the mouse lungs, left hepatic lobe, and kidneys. […] Remaining tissues were stored at −70° C. for future use.
(§7) Accurately weigh 20 mg of kidney, lung, and liver tissue. Rinse with pre-chilled PBS solution, cut into small pieces using ophthalmic scissors, and place into a glass homogenizer. Add 1 mL of Trizol reagent and grind to prepare tissue homogenate. Transfer the homogenate to a RNAse-free 1.5 mL EP tube and lyse on ice for 10 min. Add 200 μL chloroform, vortex vigorously, and let stand on ice for 3-5 min. Centrifuge at 12,000 rpm and 4° C. for 15 min. Carefully transfer the supernatant to a new RNAse-free 1.5 mL EP tube. Add an equal volume of pre-chilled isopropanol, incubate on ice for 30 min, then centrifuge at 12,000 rpm and 4° C. for 10 min. Discard the supernatant. […] Subsequently, dissolve the pellet in 10 μL DEPC-treated water. Dilute 1 μL of the total RNA solution 100-fold and measure the OD values at 260 nm and 280 nm using a full-wavelength microplate reader.
(§8) Following the method described in the kit manual, subsequent experiments were conducted using a 20 μL reverse transcription reaction system:
(§9) Primers were designed based on the nucleotide sequence of the mouse in GenBank and synthesized.
(§10) Perform subsequent experiments using a 20 μL reaction system according to the kit instructions:
(§11) After adding the above reagents to micro reaction tubes, seal them with the cap and place them in the Q-PCR instrument. Set the parameters according to the following reaction conditions to perform the amplification experiment.
(§12) Record the threshold cycle (Ct) values for each group and perform calculation and analysis using the 2^−ΔΔCt method (setting the expression level of the reference gene Gapdh as 1 to correct the expression levels of the target genes).
(§13) Data Statistics: All data are presented as Means±S.E.M. Analysis of variance (ANOVA) was performed to assess the significance of differences. Groups showing significant differences in ANOVA were further compared using one-way ANOVA and Dunnett's test. A P-value <0.05 was considered statistically significant.

[12] = test system: inflammatory factors (TNF, IL-6, IL-1) in renal tissue; experiment: LPS-induced sepsis, renal inflammatory factor mRNA (Q-PCR); conditions: 5 mg/kg
Excerpt: as §4, §5, §6, §7, §8, §9, §10, §11, §12, §13

[13] = test system: inflammatory factors (TNF, IL-6, IL-1) in liver tissue; experiment: LPS-induced sepsis, hepatic inflammatory factor mRNA (Q-PCR); conditions: 5 mg/kg
Excerpt: as §4, §5, §6, §7, §8, §9, §10, §11, §12, §13

[14] = test system: tumor cells; conditions: in vitro cell models, result in words; cited from earlier work
[15] = test system: Hepa1-6 transplanted tumor; conditions: 30 mg/kg i.p., 14 consecutive days; cited from earlier work
[16] = test system: HepG2 and Huh7 HCC cell transplanted tumor; conditions: HepG2 and Huh7 transplanted tumor models; cited from earlier work
[17] = Mus musculus, read-out: Suppression Rate (MDSC chemotaxis)

Compound: C=C1C(=O)O[C@@H]2[C@@H]3[C@]4(CC[C@@]3(C)O)C[C@]4(C)CC[C@@H]12 [Compound 1]
- Dermatitis Score, ear ([1]; 0.01% ointment): 3.50 ± 0.22
- AD-like skin lesions on the ears ([1]; 0.01%, 0.1%, 1% ointment): significantly alleviated
- inhibition rate of ear thickness increase ([1]; 0.01% ointment): 71%
- inhibition rate of ear thickness increase ([1]; 0.1% ointment): 71%
- inhibition rate of ear thickness increase ([1]; 1% ointment): 80%
- I113 mRNA expression, ear ([2]; 0.01% ointment): 3.30 ± 0.47
- I131 mRNA expression, ear ([2]; 0.1% ointment): 1.64 ± 0.25
- I131 mRNA expression, ear ([2]; 1% ointment): 1.10 ± 0.19
- AD-like skin lesions on the backs ([3]; 0.01%, 0.1%, 1% ointment): significantly alleviated
- Dermatitis Score, back ([3]; 0.1% ointment, 7 days, max score 12): 2.50 ± 0.22
- inhibition rate of dorsal skin thickness increase ([3]; 0.01% ointment): 66%
- inhibition rate of dorsal skin thickness increase ([3]; 0.1% ointment): 72%
- inhibition rate of dorsal skin thickness increase ([3]; 1% ointment): 83%
- T cell proliferation in MDSC-T cell co-culture ([4]; 1 μM, result in words): significantly enhanced T-cell proliferation
- activation at 1 µM [4]: > 40%
- inhibition at 1 µM [5, 17]: 42.3%
- inhibition at 10 µM [5, 17]: 83.3%
- inhibition of MDSC chemotaxis compared to Arg ([5]; result in words): superior inhibition rates
- inhibition at 1 µM [6]: 35.2%
- inhibition at 10 µM [6]: 76.5%
- solubility [7]: 1140 µg/mL (≈ 4.35 mM)

Compound: C[C@@H]1C[C@H]2[C@@H]3CCC4=CC(=O)C=C[C@]4(C)[C@@]3(F)[C@@H](O)C[C@]2(C)[C@@]1(O)C(=O)CO [Dex, Dexamethasone, reference compound]
- IL-1β [8]: 1873.00 ± 86.52 pg/mL
- Il1 mRNA expression, kidney [9]: 3.47 ± 0.35
- Il6 mRNA expression, kidney [9]: 1.12 ± 0.24
- Tnf mRNA expression, kidney [9]: 1.94 ± 0.30
- Dermatitis Score, ear ([1]; 1% ointment): 3.50 ± 0.22
- I14 mRNA expression, ear ([2]; 1% ointment): 1.35 ± 0.30
- I113 mRNA expression, ear ([2]; 1% ointment): 1.91 ± 0.39
- I131 mRNA expression, ear ([2]; 1% ointment): 1.86 ± 0.44
- Il1 mRNA expression, ear ([2]; 1% ointment): 12.69 ± 4.22
- TSLP mRNA expression, ear ([2]; 1% ointment): 1.30 ± 0.17
- I14 mRNA expression, ear [10]: 2.59 ± 0.38
- I113 mRNA expression, ear [10]: 1.89 ± 0.20
- I131 mRNA expression, ear [10]: 2.06 ± 0.20
- Il1 mRNA expression, lung ([11]; LPS 19.01): 7.20 ± 0.36
- Il6 mRNA expression, lung ([11]; LPS 20.34): 9.88 ± 0.80
- Il1 mRNA expression, kidney ([12]; LPS 7.99): 6.05 ± 1.03
- Il6 mRNA expression, kidney ([12]; LPS 8.80): 5.76 ± 0.72
- Il6 mRNA expression, liver ([13]; LPS 11.34): 4.27 ± 1.33
- Il1 mRNA expression, liver ([13]; LPS 11.52): 7.54 ± 0.70

Compound: C=C1C(=O)O[C@H]2[C@H]1CCC(C)=C1CC[C@@](C)(O)[C@@H]12 [MCL, Micheliolide]
- activation at 1 µM [4]: 20 to 40%
- IC50, tumor cell growth inhibition [14]: in the micromolar range
- tumor weight inhibition rate [15]: 50%
- effective dose, intraperitoneal [16]: 25 mg/kg
